Assay results published in ChEMBL document CHEMBL1201862, “PubChem BioAssay data set” (2004).
Calls of active or inactive are those of the source.

Key:
[1] = biological target: Peroxisome proliferator-activated receptor gamma/Nuclear receptor coactivator 2 (Homo sapiens, UniProt P37231); type: functional;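 further: agonist potency for raising coactivator recruitment to the receptor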
[2] = biological target: Peroxisome proliferator-activated receptor gamma/Nuclear receptor coactivator 1 (Homo sapiens, UniProt P37231); type: functional;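 further: agonist potency as compounds enhance coactivator SRC-1 recruitment to PPARgamma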
Peroxisome proliferator-activated receptor gamma/Nuclear receptor coactivator 1, sequence (P37231 whole entry): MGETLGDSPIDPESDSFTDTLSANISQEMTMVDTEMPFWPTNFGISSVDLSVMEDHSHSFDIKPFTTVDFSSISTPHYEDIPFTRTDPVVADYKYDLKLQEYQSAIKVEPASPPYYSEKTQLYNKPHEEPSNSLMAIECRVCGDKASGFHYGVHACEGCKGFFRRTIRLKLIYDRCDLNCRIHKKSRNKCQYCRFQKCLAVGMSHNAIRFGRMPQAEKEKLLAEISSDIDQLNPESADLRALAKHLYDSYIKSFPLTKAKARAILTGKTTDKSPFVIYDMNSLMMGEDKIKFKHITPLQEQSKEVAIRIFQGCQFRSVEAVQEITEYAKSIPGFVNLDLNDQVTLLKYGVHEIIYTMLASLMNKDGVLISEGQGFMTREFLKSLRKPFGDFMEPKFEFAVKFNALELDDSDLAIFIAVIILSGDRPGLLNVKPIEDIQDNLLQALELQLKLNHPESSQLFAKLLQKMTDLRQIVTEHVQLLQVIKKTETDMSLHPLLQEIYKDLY
Peroxisome proliferator-activated receptor gamma/Nuclear receptor coactivator 1, sequence (Q15788 whole entry, further chain): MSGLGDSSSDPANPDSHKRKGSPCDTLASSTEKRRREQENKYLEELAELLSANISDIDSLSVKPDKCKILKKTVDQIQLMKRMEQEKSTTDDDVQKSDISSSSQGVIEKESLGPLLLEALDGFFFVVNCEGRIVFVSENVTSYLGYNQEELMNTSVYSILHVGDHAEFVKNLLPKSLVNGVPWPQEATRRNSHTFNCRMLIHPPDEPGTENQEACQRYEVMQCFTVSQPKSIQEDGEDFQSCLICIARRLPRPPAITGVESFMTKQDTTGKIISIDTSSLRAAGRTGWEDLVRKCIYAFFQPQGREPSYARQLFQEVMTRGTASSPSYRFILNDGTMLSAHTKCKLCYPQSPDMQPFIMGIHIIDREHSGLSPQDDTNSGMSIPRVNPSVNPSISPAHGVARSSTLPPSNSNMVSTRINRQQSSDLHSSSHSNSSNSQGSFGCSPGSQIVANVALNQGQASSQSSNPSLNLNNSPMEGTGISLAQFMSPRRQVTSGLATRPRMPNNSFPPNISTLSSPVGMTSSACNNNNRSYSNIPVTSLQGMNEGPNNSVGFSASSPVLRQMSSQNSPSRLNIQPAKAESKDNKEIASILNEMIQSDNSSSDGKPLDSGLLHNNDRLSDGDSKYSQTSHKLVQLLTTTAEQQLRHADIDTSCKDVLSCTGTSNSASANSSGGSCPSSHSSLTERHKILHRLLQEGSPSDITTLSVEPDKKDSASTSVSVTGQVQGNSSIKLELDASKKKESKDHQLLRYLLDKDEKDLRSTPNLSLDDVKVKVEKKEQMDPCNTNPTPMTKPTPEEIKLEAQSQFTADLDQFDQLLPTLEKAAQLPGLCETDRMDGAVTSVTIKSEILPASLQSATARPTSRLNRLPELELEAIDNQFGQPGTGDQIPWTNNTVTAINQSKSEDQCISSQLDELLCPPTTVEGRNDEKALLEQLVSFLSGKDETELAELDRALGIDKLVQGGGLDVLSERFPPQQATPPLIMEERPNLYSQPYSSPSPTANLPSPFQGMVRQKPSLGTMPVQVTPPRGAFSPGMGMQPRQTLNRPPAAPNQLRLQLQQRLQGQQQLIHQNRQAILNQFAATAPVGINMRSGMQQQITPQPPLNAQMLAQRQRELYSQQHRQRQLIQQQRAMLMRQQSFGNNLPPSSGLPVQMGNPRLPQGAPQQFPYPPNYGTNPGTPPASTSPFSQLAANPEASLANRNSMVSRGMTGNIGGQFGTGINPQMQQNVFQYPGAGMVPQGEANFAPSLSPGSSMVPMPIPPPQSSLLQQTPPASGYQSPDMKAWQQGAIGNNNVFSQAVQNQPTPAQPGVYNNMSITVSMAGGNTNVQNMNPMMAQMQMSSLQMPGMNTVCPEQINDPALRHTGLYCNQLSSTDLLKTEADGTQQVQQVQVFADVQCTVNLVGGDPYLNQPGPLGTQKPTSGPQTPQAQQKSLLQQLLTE

[3] = biological target: Peroxisome proliferator-activated receptor gamma/Nuclear receptor coactivator 3 (Homo sapiens, UniProt P37231); type: functional;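 further: agonist potency for raising coactivator recruitment to the receptor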
Peroxisome proliferator-activated receptor gamma/Nuclear receptor coactivator 3, sequence (P37231 whole entry): as the sequence (P37231 whole entry) above
Peroxisome proliferator-activated receptor gamma/Nuclear receptor coactivator 3, sequence (Q9Y6Q9 whole entry, further chain): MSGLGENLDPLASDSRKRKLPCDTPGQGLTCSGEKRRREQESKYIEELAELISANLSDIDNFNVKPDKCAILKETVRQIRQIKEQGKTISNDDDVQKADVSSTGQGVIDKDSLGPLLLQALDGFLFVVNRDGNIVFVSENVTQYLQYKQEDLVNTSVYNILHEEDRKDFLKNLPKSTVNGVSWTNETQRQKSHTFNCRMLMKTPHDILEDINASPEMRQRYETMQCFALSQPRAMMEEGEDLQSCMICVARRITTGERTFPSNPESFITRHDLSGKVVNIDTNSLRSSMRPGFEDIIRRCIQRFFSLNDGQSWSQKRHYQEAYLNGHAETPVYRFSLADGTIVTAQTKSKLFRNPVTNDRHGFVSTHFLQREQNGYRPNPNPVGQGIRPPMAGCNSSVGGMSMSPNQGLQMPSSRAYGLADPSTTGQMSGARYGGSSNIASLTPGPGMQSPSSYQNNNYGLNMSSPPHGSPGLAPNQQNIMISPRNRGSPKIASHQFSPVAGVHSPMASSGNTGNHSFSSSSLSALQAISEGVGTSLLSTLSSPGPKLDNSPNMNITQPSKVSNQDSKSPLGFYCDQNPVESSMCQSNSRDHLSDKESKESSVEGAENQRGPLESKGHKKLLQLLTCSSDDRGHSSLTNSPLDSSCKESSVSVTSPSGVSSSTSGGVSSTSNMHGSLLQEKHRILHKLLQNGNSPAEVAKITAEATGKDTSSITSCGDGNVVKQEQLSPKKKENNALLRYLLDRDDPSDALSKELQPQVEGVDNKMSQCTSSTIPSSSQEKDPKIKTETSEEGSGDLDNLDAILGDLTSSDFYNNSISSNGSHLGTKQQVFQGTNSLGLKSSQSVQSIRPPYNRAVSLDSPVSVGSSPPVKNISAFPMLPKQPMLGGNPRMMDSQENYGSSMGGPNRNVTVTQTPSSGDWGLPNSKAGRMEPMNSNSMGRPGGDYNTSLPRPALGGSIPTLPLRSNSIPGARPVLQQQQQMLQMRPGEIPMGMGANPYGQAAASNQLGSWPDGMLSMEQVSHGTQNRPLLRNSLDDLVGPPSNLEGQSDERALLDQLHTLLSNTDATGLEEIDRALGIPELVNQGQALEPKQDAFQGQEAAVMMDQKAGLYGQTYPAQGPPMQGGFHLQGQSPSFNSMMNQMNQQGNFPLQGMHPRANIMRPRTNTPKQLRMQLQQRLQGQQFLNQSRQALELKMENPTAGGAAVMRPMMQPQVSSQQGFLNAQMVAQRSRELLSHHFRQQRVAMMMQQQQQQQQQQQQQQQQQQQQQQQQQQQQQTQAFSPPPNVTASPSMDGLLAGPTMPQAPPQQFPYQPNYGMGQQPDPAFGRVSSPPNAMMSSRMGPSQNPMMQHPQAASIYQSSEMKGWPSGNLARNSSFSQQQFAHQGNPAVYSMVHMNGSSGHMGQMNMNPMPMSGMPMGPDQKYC

Estrogen receptor = biological target: T1, Estrogen receptor (Homo sapiens, UniProt P03372); experiment: ERα–SRC-3 coactivator interaction inhibitors, confirmation, orthogonal assay, biochemical, ELISA, streptavidin-HRP readout (AID 1079)
T1 sequence (P03372 whole entry): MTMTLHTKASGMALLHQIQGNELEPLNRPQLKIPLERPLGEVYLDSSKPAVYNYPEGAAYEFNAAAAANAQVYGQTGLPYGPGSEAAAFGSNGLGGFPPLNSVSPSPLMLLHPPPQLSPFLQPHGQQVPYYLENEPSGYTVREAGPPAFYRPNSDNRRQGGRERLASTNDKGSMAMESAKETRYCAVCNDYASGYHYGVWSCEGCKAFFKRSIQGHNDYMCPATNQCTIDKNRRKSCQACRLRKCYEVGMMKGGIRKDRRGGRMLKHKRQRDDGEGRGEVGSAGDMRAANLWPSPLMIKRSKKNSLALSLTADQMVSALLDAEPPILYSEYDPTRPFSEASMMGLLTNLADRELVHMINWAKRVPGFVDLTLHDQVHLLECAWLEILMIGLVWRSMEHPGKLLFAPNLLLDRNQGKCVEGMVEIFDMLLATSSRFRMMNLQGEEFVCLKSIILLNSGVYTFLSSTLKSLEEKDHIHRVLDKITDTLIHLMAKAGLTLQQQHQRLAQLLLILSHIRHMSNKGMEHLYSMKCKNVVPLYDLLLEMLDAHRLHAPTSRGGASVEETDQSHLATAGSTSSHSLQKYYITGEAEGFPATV

[4] = inhibitors of Bluetongue virus cytopathic effect, confirmation, arbovirus, BSR cells (AID 1250); type: functional;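 further: protection from viral cytopathic effect measured as cell viability by ATP luminescence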
[5] = biological target: T2, RNA-binding protein pos-1 (Caenorhabditis elegans, UniProt G5EF15); experiment: inhibitors of POS-1/mex-3 RNA binding, dose response, biochemical, fluorescence polarization (AID 1964);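 further: purified POS-1 fused to maltose binding protein made in E. coli; potency of compounds blocking POS-1 binding to fluorescent RNA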
T2 sequence (G5EF15 whole entry): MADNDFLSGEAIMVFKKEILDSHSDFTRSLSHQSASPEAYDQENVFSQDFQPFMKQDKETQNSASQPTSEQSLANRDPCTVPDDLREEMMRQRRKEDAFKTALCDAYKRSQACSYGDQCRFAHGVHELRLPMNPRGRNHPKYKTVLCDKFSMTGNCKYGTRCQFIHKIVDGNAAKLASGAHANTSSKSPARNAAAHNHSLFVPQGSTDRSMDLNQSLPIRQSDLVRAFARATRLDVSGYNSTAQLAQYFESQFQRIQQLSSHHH

[6] = biological target: T3, Zinc finger protein mex-5 (Caenorhabditis elegans, UniProt Q9XUB2); experiment: MEX-5/TCR-2 RNA interaction inhibitors, dose response, biochemical, C. elegans, fluorescence polarization (AID 1960)
T3 sequence (Q9XUB2 whole entry): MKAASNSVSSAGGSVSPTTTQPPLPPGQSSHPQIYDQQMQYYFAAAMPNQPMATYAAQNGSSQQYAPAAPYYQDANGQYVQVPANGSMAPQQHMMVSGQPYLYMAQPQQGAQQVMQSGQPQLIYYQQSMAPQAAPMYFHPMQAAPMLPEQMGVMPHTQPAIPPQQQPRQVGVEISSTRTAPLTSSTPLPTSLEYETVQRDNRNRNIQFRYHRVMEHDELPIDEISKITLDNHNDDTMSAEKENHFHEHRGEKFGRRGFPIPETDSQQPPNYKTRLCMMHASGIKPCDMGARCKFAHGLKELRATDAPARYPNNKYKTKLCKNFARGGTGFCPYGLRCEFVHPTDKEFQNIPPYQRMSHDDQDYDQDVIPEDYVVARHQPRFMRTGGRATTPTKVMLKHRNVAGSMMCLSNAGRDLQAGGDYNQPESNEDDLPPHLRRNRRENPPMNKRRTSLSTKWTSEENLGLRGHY

[7] = biological target: Mothers against decapentaplegic homolog 3 (Homo sapiens, UniProt P84022); experiment: SMAD3 transcription factor inhibitors, dose response (AID 715); type: functional
Mothers against decapentaplegic homolog 3, sequence (P84022 whole entry): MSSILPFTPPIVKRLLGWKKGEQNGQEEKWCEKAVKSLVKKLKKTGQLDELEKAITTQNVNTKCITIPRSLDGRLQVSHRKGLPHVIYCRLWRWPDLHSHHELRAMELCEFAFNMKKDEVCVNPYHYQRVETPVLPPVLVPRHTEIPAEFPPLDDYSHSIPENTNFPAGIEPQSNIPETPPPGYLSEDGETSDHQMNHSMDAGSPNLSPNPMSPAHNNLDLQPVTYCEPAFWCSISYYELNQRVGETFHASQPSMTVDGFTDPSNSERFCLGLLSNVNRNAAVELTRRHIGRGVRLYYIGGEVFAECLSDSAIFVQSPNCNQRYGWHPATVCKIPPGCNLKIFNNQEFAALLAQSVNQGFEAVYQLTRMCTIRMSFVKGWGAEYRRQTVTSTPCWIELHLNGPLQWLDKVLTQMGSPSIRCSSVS

[8] = inhibitors of intracellular T. cruzi replication, confirmation, NIH3T3 host cells, beta-gal luminescence (AID 2044); type: functional, cell-based;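 further: intracellular parasites grown in NIH/3T3 mouse fibroblasts as host cells; luminescent beta-galactosidase reporter signal from transgenic T. cruzi replicating inside host cells; inhibitors lower the luminescence signal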
[9] = cytotoxicity toward NIH3T3 fibroblasts, dose response, counter-screen, cell-based, ATP luminescence, mouse fibroblasts (AID 2010); type: functional;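 further: cells exposed to compound for about 90 hours before reading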
Mucolipin-3 = Mucolipin-3 (Homo sapiens, UniProt Q8TDD5); experiment: Dose response cell-based high-throughput screening assay for agonists of the transient receptor potential channel ML3 (TRPML3). [Related pubchem assays: 1526, 1424, 1448 ]; type: functional
Mucolipin-3, sequence (Q8TDD5 whole entry): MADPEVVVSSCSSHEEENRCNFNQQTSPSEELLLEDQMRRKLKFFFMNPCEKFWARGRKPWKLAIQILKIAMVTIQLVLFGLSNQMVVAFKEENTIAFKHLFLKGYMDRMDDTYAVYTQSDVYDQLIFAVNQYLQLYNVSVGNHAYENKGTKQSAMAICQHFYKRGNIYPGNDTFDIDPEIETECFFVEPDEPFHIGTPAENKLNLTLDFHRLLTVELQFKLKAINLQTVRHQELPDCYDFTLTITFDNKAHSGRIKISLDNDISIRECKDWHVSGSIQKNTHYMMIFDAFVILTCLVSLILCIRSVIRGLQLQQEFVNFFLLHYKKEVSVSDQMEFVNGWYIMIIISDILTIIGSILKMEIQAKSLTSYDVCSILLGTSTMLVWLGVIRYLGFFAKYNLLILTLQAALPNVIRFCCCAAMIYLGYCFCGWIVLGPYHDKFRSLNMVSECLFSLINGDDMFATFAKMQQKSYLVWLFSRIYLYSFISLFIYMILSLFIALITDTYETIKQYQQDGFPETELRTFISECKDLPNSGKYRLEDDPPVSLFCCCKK

Ion channel NompC = Ion channel NompC (Danio rerio, UniProt Q7T1G6); experiment: Fluorescence counterscreen assay for TRPML3 agonists: dose response cell-based high-throughput screening assay to identify agonists of the transient receptor potential channel N1 (TRPN1). [Related pubchem assays: 1526, 1424, 1448 ]; type: functional
Aminopeptidase N = biological target: T4, Aminopeptidase N (Plasmodium falciparum FcB1/Columbia, UniProt O96935); experiment: P. falciparum M1AAP inhibitors, biochemical, fluorogenic H-Leu-NHMec substrate, 1536-well (AID 1445); parameters: species or system Plasmodium falciparum 3D7, 3D7
T4 sequence (O96935 whole entry): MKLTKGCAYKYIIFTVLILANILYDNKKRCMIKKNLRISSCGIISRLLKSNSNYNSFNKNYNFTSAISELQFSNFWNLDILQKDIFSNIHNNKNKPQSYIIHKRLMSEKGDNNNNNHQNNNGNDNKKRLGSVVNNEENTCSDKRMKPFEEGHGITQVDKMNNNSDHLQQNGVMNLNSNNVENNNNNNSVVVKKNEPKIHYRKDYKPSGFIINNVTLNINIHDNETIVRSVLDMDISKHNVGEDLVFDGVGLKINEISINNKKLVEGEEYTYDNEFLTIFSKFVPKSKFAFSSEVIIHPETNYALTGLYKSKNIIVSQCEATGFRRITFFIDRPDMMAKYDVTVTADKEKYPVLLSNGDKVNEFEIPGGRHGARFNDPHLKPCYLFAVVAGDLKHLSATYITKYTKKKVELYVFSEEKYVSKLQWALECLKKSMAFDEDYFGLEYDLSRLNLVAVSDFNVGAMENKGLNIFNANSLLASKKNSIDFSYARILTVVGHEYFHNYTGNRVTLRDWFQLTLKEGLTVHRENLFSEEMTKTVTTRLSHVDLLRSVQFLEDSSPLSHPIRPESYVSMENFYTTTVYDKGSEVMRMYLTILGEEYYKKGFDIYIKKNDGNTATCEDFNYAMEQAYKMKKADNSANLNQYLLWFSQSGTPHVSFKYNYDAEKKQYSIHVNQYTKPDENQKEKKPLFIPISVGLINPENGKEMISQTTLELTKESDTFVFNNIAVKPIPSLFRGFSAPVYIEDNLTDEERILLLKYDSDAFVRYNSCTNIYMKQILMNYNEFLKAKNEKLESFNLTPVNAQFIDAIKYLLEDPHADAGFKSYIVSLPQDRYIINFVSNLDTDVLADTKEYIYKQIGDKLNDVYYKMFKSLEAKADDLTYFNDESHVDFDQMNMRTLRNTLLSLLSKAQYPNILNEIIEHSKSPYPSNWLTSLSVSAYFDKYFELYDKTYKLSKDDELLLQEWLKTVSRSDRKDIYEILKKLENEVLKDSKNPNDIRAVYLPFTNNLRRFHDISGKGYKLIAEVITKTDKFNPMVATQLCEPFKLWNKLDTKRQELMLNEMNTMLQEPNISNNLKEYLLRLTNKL

[10] = HIV-1 Env-mediated cell fusion inhibitors, dose response, CCR5-tropic Env (AID 2279); type: functional
HeLa = experiment: Cytotoxicity counterscreen assay for transcriptional activators of heat shock protein 70 (Hsp70). [Related pubchem assays: 1203, 1252 ]; type: functional; details: Homo sapiens
[11] = biological target: T5, Rac GTPase-activating protein 1 (Homo sapiens, UniProt Q9H0H5); experiment: MgcRacGAP GTPase-activating activity inhibitors, confirmation, biochemical, ADP Hunter fluorescence, primary and confirmatory (AID 624330); type: functional
T5 sequence (Q9H0H5 whole entry): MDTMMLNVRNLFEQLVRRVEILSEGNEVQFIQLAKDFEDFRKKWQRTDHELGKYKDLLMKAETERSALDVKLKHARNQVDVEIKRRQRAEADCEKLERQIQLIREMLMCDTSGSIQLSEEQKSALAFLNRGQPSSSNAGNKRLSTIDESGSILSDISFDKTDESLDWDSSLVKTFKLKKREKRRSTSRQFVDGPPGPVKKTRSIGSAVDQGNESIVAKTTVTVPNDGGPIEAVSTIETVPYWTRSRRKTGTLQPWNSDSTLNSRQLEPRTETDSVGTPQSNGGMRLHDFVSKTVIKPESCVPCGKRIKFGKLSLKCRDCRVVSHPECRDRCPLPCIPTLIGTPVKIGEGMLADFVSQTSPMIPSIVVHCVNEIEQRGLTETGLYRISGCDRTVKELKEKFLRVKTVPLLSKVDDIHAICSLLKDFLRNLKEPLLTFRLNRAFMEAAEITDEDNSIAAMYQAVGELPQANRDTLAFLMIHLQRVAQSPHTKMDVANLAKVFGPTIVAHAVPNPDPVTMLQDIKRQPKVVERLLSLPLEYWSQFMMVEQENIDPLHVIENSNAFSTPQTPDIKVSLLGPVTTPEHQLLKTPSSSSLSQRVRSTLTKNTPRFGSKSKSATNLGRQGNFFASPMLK

[12] = tested on: Streptococcus sp. 'group A'; experiment: growth inhibition of control SK(-) GAS strain, dose response, counter-screen for streptokinase expression inhibitor project, luminescence, kanamycin, BacTiterGlo, confirmation (AID 1900); type: functional, organism-based
Streptokinase A = biological target: T6, Streptokinase A (Streptococcus pyogenes serotype M1, UniProt P10520); experiment: S. pyogenes streptokinase expression inhibitors, potency, dose response, plasminogen activation absorbance, OD405 (AID 1914); type: functional, Streptococcus pyogenes M1 GAS;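 further: secreted streptokinase activity via plasminogen activation per viability signal from cell pellet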
T6 sequence (P10520 whole entry): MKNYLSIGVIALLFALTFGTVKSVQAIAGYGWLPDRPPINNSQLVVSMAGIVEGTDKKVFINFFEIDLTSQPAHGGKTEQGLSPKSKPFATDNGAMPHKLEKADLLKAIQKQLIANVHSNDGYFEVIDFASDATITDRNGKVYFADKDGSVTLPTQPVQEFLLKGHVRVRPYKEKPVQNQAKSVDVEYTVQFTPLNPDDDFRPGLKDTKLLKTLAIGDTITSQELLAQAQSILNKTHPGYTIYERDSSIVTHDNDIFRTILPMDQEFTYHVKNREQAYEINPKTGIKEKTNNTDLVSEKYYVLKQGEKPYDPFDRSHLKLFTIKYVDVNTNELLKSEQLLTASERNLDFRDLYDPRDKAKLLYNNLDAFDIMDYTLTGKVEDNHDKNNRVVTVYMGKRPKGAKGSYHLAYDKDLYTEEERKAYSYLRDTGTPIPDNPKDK

[13] = enhancers of respiration in Yfh1-depleted yeast, dose response, Friedreich's ataxia, plus single-dose screen (AID 1465); type: functional;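 further: yeast depleted of Yfh1p frataxin homolog grown on glycerol needing respiration; WST-1 tetrazolium dye reduction as measure of cellular dehydrogenase metabolic activity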
Streptococcus = experiment: Group A Streptococcus viability loss, dose response, counter-screen for streptokinase expression inhibitor project, luminescence, BacTiterGlo (AID 1915); type: functional, organism-based;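 further: potency for reduction of bacterial viability or growth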
[14] = Luminescence Cell-Based Dose Retest to Confirm Inhibitors of Cancer Stem Cells. [Related pubchem assays (depositor defined):AID2717, AID2721]; type: functional; details: Homo sapiens
[15] = biological target: T7, Probable nicotinate-nucleotide adenylyltransferase (Staphylococcus aureus (strain N315), UniProt P65502); type: functional, Staphylococcus aureus subsp. aureus N315;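 on IC50 Mean: confirmatory dose-response retesting of NadD inhibitor hits first found in an ultra-high-throughput screen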
T7 sequence (P65502 whole entry): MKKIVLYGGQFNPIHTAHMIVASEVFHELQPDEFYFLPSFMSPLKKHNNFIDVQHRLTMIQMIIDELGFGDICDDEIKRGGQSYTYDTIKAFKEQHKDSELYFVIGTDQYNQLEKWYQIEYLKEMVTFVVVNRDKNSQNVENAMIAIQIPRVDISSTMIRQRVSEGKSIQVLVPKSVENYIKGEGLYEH

[16] = biological target: T7, Probable nicotinate-nucleotide adenylyltransferase; type: functional, Staphylococcus aureus subsp. aureus N315; details: read-out: IC50_Mean
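Wherever AC50 is given: cells exposed to compound for roughly 70 hours or longer before luminescence read.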
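Wherever CC50 is given: cells exposed to compound for 16 hours before readout.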

## CCOC(=O)C1CCN(C(=O)CSc2ccccc2Cl)CC1
[1]
  EC50: > 79.4 µM (not active)
[2]
  EC50: > 79.4 µM (not active)
[3]
  EC50: > 79.4 µM (not active)

## COc1ccc(N2CCN(C(=O)CCCn3c(=S)[nH]c4ccccc4c3=O)CC2)cc1
Estrogen receptor
  IC50: > 50 µM (not active)

## Cc1cc(C)c2c(O)nc(SCC(=O)c3ccc(C)c(C)c3)nc2n1
[4]
  IC50: 27.6 µM (active)

## CCCN1CCCc2cc(CN)ccc21
[5]
  EC50: 18.5 µM (active)
[6]
  EC50: 13 µM (active)
[7]
  IC50: 24.6 µM (active)
[8]
  EC50: 0.127 µM (active)
[9]
  EC50: > 30 µM (not active)

## Cc1onc(-c2ccccc2Cl)c1C(=O)Nc1cccc(-c2nc3ncccn3c2C)c1
Mucolipin-3
  EC50: > 29.9 µM (not active)
Ion channel NompC
  EC50: > 29.9 µM (not active)

## COc1cc(/C=C2\SC(=O)N(CC(=O)Nc3cccc(C)c3)C2=O)cc([N+](=O)[O-])c1O
Aminopeptidase N
  IC50: 40.8 µM (active)
[10]
  IC50: > 50 µM (active)

## COc1ccccc1C1Nc2cccc3cccc(c23)N1
HeLa
  CC50: > 99 µM (not active)
[11]
  IC50: 35.1 µM (active)

## Oc1nc(NN=C(S)NCc2ccccc2)nc2c1C1(CCCCC1)Cc1ccccc1-2
[12]
  EC50: 3.33 µM (active)
Streptokinase A
  EC50: 4.58 µM (active)
[13]
  EC50: > 100 µM (active)
Streptococcus
  EC50: 6.03 µM (active)
[14]
  AC50: 3 µM (active)
[15]
  IC50: 11.8 µM (active)
[16]
  IC50: 35.8 µM (active)
